Data from ChEMBL document CHEMBL1154583, “Cytotoxic lavandulyl flavanones from Sophora flavescens” (J Nat Prod, 2000).
The source made the active and inactive calls. No cut-off for these calls is given here.

Tested on: HL-60
Experiment: Cytotoxicity against human HL60 cells after 96 hrs by MTT assay
Type: functional, cell-based
Details: for IC50: HL-60, 96 h

| Compound | IC50 [µM] | Activity |
| --- | --- | --- |
| C=C(C)C(CC=C(C)C)Cc1c(O)cc(OC)c2c1O[C@H](c1ccc(O)cc1O)CC2=O (stereo not given in full) [KURARINONE] | 18.5 | – |
| COc1ccc(-c2coc3cc(O)ccc3c2=O)cc1 | – | inactive |
| C=C(C)[C@H](CC=C(C)C)Cc1c(O)cc(O)c2c1O[C@H](c1ccc(O)cc1O)CC2=O [SOPHORAFLAVANONE G] | 12.5 | – |
| C=C(C)[C@H](CC=C(C)C)Cc1c(O)cc(OC)c2c1O[C@H](c1ccc(O)cc1OC)CC2=O | 13.7 | – |
| Oc1ccc2c(c1)OC[C@H]1c3cc4c(cc3O[C@@H]21)OCO4 | – | inactive |
